From PubChem BioAssay (NCI)
“And” between values parts separate entries of the source, which are not always exact repeats. Identical values can stand only once.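 Results reflect a 48-hour exposure of cells in 96-well plates to compound at five concentrations. The concentration for 50% growth inhibition is given as GI50. TGI: concentration producing complete growth inhibition.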

Experiments:
Assay in all cases: NCI anticancer screen, dose series, 48 h
A549 NSCLC = system: A549 NSCLC
CAKI-1 renal = system: CAKI-1 renal
HOP-62 NSCLC = system: HOP-62 NSCLC
LOX IMVI melanoma = system: LOX IMVI melanoma
MALME-3M melanoma = system: MALME-3M melanoma
OVCAR-8 ovarian = system: OVCAR-8 ovarian
SF-268 CNS = system: SF-268 CNS
SF-295 CNS = system: SF-295 CNS
SW-620 colon = system: SW-620 colon
TK-10 renal = system: TK-10 renal

Structure (SMILES) | TGI (A549 NSCLC) | TGI (CAKI-1 renal) | TGI (HOP-62 NSCLC) | TGI (LOX IMVI melanoma) | TGI (MALME-3M melanoma) | TGI (OVCAR-8 ovarian) | TGI (SF-268 CNS) | TGI (SF-295 CNS) | TGI (SW-620 colon) | TGI (TK-10 renal) | GI50 (A549 NSCLC) | GI50 (CAKI-1 renal) | GI50 (HOP-62 NSCLC) | GI50 (LOX IMVI melanoma) | GI50 (MALME-3M melanoma) | GI50 (OVCAR-8 ovarian) | GI50 (SF-268 CNS) | GI50 (SF-295 CNS) | GI50 (SW-620 colon) | GI50 (TK-10 renal)
O=C1CCCCCCCCCCOC(=O)CCCCCCCCCCO1 | > 100 µM | > 100 µM | > 100 µM | > 100 µM | > 100 µM | > 100 µM | > 100 µM | > 100 µM | > 100 µM | > 100 µM |  |  |  |  |  |  |  |  |  | 
COc1c(OC)c(OC)c(-c2cc(=O)c3c(OC)c(OC)c(OC)c(OC)c3o2)c(OC)c1OC | > 100 µM | > 100 µM | > 100 µM | > 100 µM | > 100 µM | > 100 µM | > 100 µM | > 100 µM | > 100 µM | 85.3 µM |  |  |  |  |  |  |  |  |  | 
C=C(C)C1CCC2(C(=O)O)CCC3(C)C(CCC4C5(C)CCC(O)C(C)(C)C5CCC43C)C12 (configuration not stated) | 24.1 µM | 27.4 µM | 27.6 µM | 52.8 µM | 27.9 µM | 20.7 µM | 28.7 µM | 23.6 µM | 51.5 µM | 28.9 µM |  |  |  |  |  |  |  |  |  | 
C[C@H]1CCC2C(CN3CCCCC3)C(=O)OC2[C@]2(C)C(=O)CC(N3CCCCC3)C12O (some centres not stated) | 90.8 µM | 97.9 µM |  |  | 47.5 µM |  | 44.8 µM | 22.3 µM | 10.3 µM | 34.3 µM |  |  |  |  |  |  |  |  |  | 
Cc1cc(C)c(C2=NO[C@@H]3C(=O)N(c4ccc(Cc5ccc(N6C(=O)[C@H]7C(c8c(C)cc(C)cc8C)=NO[C@H]7C6=O)cc5)cc4)C(=O)[C@H]23)c(C)c1 | > 100 µM | > 100 µM | > 100 µM | > 100 µM | > 100 µM | > 100 µM | > 100 µM | > 100 µM | > 100 µM | > 100 µM |  |  |  |  |  |  |  |  |  | 
O=C(O)C1C2CCC(O2)C1C(=O)NCc1cccnc1 (configuration not stated) | > 100 µM | > 100 µM | > 100 µM | > 100 µM | > 100 µM |  |  | > 100 µM | > 100 µM | > 100 µM |  |  |  |  |  |  |  |  |  | 
C=C(C)[C@@H]1CC[C@]2(C(=O)N3CCN(C)CC3)CC[C@]3(C)[C@H](CC[C@@H]4[C@@]5(C)CC[C@H](O)C(C)(C)[C@@H]5CC[C@]43C)[C@@H]12 | 3.88 µM | 3.05 µM | 3.75 µM | 3.74 µM | 3.83 µM | 4.56 µM | 4.42 µM | 3.27 µM | 3.7 µM | 3.38 µM | 1.88 µM | 1.59 µM | 1.91 µM | 1.87 µM | 1.92 µM | 1.69 µM | 2.02 µM | 1.68 µM | 1.74 µM | 1.79 µM
O=C1NC(Cc2ccccc2)C(=O)N2CCCC12 (configuration not stated) | > 100 µM | > 100 µM | > 100 µM | > 100 µM | > 100 µM | > 100 µM | > 100 µM | > 100 µM | > 100 µM | > 100 µM |  |  |  |  |  |  |  |  |  | 
NCCCCCCCCCn1c2c(c3ccccc3c1=O)C(=O)c1ccccc1-2 | > 50 µM | 18.8 µM | 16.2 µM | 23.6 µM | 21.8 µM | > 50 µM | 31.5 µM | 20.8 µM | 15.6 µM | 17.4 µM | 9.75 µM | 9.15 µM | 6.84 µM | 7.38 µM | 9.17 µM | 12.5 µM | 11.8 µM | 9.67 µM | 6.11 µM | 8.8 µM
Cc1cc(N(CCC#N)CCC#N)ccc1CC1N=C(c2ccccc2)OC1=O (configuration not stated) | > 100 µM | > 100 µM | > 100 µM | > 100 µM | > 100 µM | > 100 µM | > 100 µM | > 100 µM | > 100 µM | > 100 µM |  |  |  |  |  |  |  |  |  | 
C=CNC(=S)n1nc(-c2ccccc2NC(=O)C(F)(F)F)c(=O)n(C(=S)NC=C)c1=S | > 1 µM | > 100 µM | 86 µM | > 100 µM | > 100 µM | > 100 µM | 46 µM | 81.6 µM | > 100 µM | > 100 µM |  |  |  |  |  |  |  |  |  | 
O=C(Nc1nc(-c2ccccc2Cl)cs1)c1cc(-c2ccc(Cl)cc2)nc2ccc(Cl)cc12 | > 100 µM | > 100 µM | 45 µM | 20.8 µM | 47.7 µM | 16.2 µM | 32.9 µM | 23.3 µM | > 100 µM | > 100 µM | 39.2 µM | 19.6 µM | 3.73 µM | 0.457 µM | 4.77 µM | 1.19 µM | 2.37 µM | 3.16 µM | 4.01 µM | 15 µM
O=[P+](O)c1cccnc1 | > 100 µM | > 100 µM | > 100 µM | > 100 µM | > 100 µM | > 100 µM | > 100 µM | > 100 µM | > 100 µM | > 100 µM |  |  |  |  |  |  |  |  |  | 
COc1cccc(/C=C2\CCc3ccccc3C2=O)c1 | 60.1 µM | 36.4 µM | 29.2 µM | 36.8 µM | 29 µM | 60.7 µM | 29.1 µM | 27.3 µM | 13.4 µM | 34.6 µM | 20.1 µM | 11.3 µM | 14.6 µM | 12.9 µM | 12.7 µM | 12.4 µM | 14.8 µM | 9.62 µM | 3.7 µM | 15.1 µM
CN(CCCCN)c1ccc2c(=O)[nH][nH]c(=O)c2c1 | > 100 µM | > 100 µM | > 100 µM | > 100 µM | > 100 µM |  | > 100 µM | > 100 µM | > 100 µM | > 100 µM |  |  |  |  |  |  |  |  |  | 
COc1ccc(/C=C/C(=O)c2ccccc2)cc1OC | 47.7 µM and > 100 µM | 38.2 µM and 35.6 µM | 31.1 µM and 43 µM | 28.1 µM and 14.6 µM | 35.1 µM and 38 µM | 39.6 µM and 39.2 µM | 36.7 µM and 64.9 µM | 32.9 µM and 34 µM | > 100 µM and 18.4 µM | 32 µM and 27.8 µM | 30.5 µM | 14.1 µM | 19.3 µM | 3.32 µM | 18.7 µM |  | 19.7 µM | 14.5 µM |  | 13.6 µM
O=C(O)c1c[nH]c2c(ccc3[nH]cc(C(=O)O)c(=O)c32)c1=O | > 100 µM | > 100 µM | > 100 µM | > 100 µM | > 100 µM | > 100 µM | > 100 µM | > 100 µM | > 100 µM | > 100 µM |  |  |  |  |  |  |  |  |  | 
